Source: article PMC9489722, “Identification and development of a subtype-selective allosteric AKT inhibitor suitable for clinical development” (Scientific Reports, 2022)
Like-named read-outs stand apart in the source and are kept apart here. Each block holds one compound with its values, some of them ahead of it.

How the values were obtained:
[1] = In vitro proliferation assay (CellTiter-Glo), normal cell lines; type: cell-based; conditions: human, normal cell lines (4 of the 6 tested; lines not named); 4 of the 6 normal cell lines tested; read-out: cytotoxicity EC50, normal cell lines
Method: MCF-7, T47D, NCI-H460, HCT116, LNCaP, A431, PC3, PANC-1, A549, HT29M, SKOV-3, Du145, HMEC-1, Hs888Lu, Hela, MDA-MB-231 and SW480 cells were obtained from American Type Culture Collection (ATCC). A2780, PNT2, U251MG, HFFF2 and Fr2 cells were obtained from Public Health England European Collection of Authenticated Cell Cultures (Phe ECACC). InMyoFib and NHLF cells were acquired from Lonza. Cells were then incubated with increasing concentration of inhibitor (1 nM to 100 µM) for 72 h at 37 °C. Cell viability was determined using the CellTiter-Glo Luminescent Cell Viability Assay (Promega). IC50 values were derived as previously stated.

[2] = In vitro microsomal stability, human; type: in vitro ADME; conditions: pH 7.4; human liver microsomes; read-out: human LM CLint
Method: (§1) Compounds (final concentration = 1 µM; final DMSO concentration = 0.1%) were incubated in 0.1 M phosphate buffer at pH 7.4 with liver microsomes (human, mouse, rat or dog; 0.5 mg of protein/mL) at 37 °C. Reactions were started by addition of NADPH in 0.1 M phosphate buffer pH 7.4 (final concentration 1 mM). Reactions were quenched by addition of ice-cold methanol and frozen. The supernatants were analysed by LC/MS/MS on a Waters Acquity I-Class coupled to a Waters Xevo TQD mass spectrometer. A Waters BEH C18 2.1 × 50 mm 1.7 µm column was used and mobile phases consisted of water and methanol containing 0.1% formic acid as modifier. Analysis was by multiple reaction monitoring and conditions were optimised for each test compound.

[3] = Pharmacokinetic study in Sprague–Dawley rats; type: in vivo, rat; conditions: male SD rats
Method: Eight rats were purchased and 6 used on the PK study (3 per administration route). The remaining rats were purchased in case of mis-dosing events and were used to obtain blank biological matrix. Compounds were administered as single i.v. doses at 1 mg free base/kg or single oral doses at 5 mg free base/kg, with blood samples obtained from three rats per dose route, at 9 time-points out to 24 h post-dose. Both the intravenous and oral doses were prepared at a concentration of 1 mg free base/mL in a mixture of 5% DMSO/95% saline. Blood samples were centrifuged to give plasma. Plasma proteins were precipitated, and compounds extracted by addition of six volumes of acetonitrile containing warfarin as internal standard. Samples were centrifuged at 4000 rpm for 30 min and the supernatants were analysed on a Waters Xevo TQ mass spectrometer. Multiple Reaction Monitoring (MRM) methods were developed for each test compound using Waters IntelliStart software.
Quantification of test compounds was by extrapolation from calibration lines prepared in control rat plasma and analysed concurrently with experimental samples.
Non-compartmental analysis was performed using the software package PK Solutions 2.0 from Summit Research Services to produce the PK parameters. AUC values were calculated by the trapezoidal method.
Oral bioavailability was estimated by comparison of the drug concentration/time AUCs for individual animals after oral dosing with the mean AUC from i.v. doses.

[4] = test system: pAKT^S473 in A549 tumours; experiment: PK/PD study in A549 lung cancer xenograft model; type: in vivo, mouse; conditions: single oral dose 100 mg/kg, 24-h time period, A549 xenograft
Method: In order to understand the relationship between ALM301 plasma exposure and in vivo AKT target engagement over time, a PK/PD study was carried out in a A549 lung cancer xenograft model. […] ALM301 plasma concentrations and levels of pAKT^S473 in tumours were measured using western blotting and immunohistochemistry (Fig. 4A, B and Supplementary Fig. S4A–C). […] Tumour sections were collected following one dose of either vehicle or 30 mg/kg of ALM301 at noted time intervals (1 h, 2 h, 4 h, 8 h, 24 h). Tissue sections were subsequently stained with pAKT antibody (brown) staining and scored for pAKT staining using a scale of 1–4 (low to high) (Fig. 4B).
For pharmacokinetic/pharmacodynamic (PK/PD) studies in A549 lung cancer xenografts, 150 male BALB/c nude mice aged 6–8 weeks and weighing approximately 18–22 g were inoculated with 1 × 10^7 A549 tumour cells (ATCC) in 0.1 mL of PBS with Matrigel (1:1) subcutaneously into the right flank. Once the mean tumour size reached 150–250 mm^3, the mice were randomised into treatment groups (18 mice per group) using a randomised block design (first, experimental animals are divided into homogeneous blocks according to their initial tumour volume; secondly, within each block, randomisation of animals to treatment groups was conducted so that each animal had the same probability of being assigned to a given treatment, thereby reducing systematic bias). Group sizes were devised based on previous pilot studies using a minimal numbers approach of n = 3 tumours per time-point (6 time-points per dose level). […] Tumour size was measured twice weekly in two dimensions using a caliper, and the volume expressed in mm^3 using the formula: V = 0.5 (a × b^2), where a and b are the long and short diameters of the tumour, respectively.

CYP 2C9 = CYP 2C9 (Homo sapiens, UniProt P11712); experiment: CYP2C9 inhibition; type: in vitro ADME
LogD7.4 assay = type: physicochemical; conditions: octanol/PBS buffer; octanol/PBS pH 7.4
Method: Compounds (100 µM) were shaken at 300 rpm at room temperature for 4 h in a biphasic system of octanol and PBS buffer pH 7.4 in a 96-well plate in triplicate. The relative drug concentration in each phase was then determined by the peak area measurement from LC-UV analysis on an Agilent 1260 chromatography instrument (UV detection at 254 nm and 220 nm). LogD is calculated as follows: LogD = Log[peak area of compound in octanol x injection volume of buffer phase/peak area of compound in buffer x injection volume of octanol phase].

Kinetic solubility assay = type: physicochemical; conditions: PBS pH 7.4, read-out: Kinetic solubility pH7.4
Method: Compound solubility was tested in Dulbecco A PBS buffer at pH7.4 in Millipore MultiScreen Solubility Filter plates. Analysis was carried out on a Bioteck Synergy 4 plate reader (240–400 nm) and solubility quantified against a 5-point calibration curve.

[5] = In vitro microsomal stability, rat; type: in vitro ADME; conditions: pH 7.4; rat liver microsomes; read-out: rat LM CLint
Method: as §1

[6] = test system: pAKT (Ser473) in MCF-7 cells; experiment: phospho-AKT (S473) ELISA in MCF-7 cells; type: cell-based; conditions: Homo sapiens, MCF7, 24h treatment, read-out: EC50 inhibition of phosphorylation of AKT
Method: (§2) Cells were then washed with PBS and lysed. The subsequent supernatant was assayed using a GSK3β (pS9) (Invitrogen, Life Technologies) ELISA. Phospho-AKT levels were detected using the phospho-AKT (S473) immunoassay (R&D Systems) as per manufacturer’s protocol. Percentage inhibition of phosphorylation status was calculated by comparing phospho-AKT levels to total AKT levels with each treatment and IC50 values derived using non-linear regression on GraphPad Prism.

[7] = test system: pGSK3β in PC3 prostate cancer cells; experiment: pGSK3β ELISA in PC3 cells; type: cell-based; conditions: for IC50: Homo sapiens, PC-3, PC3 cells, 24 h
Method: as §2

AKT1 = target: T1, AKT1 (Homo sapiens, UniProt P31749); experiment: AKT1 biochemical kinase assay (FP iMAP); conditions: for IC50: read-out: AKT IC50, AKT1
T1 construct: purchased Millipore
Method: (§3) Biochemical analysis was performed using kinases obtained from Millipore (AKT1, ∆AKT1, ∆AKT2, ∆AKT3) and Signal Chem (AKT2 and AKT3). […] (Molecular Devices) against the three isoforms of AKT and their PH domain null mutants. Compounds were dissolved in DMSO prior to screening at 14 point titration series in the range (50 µM–50 pM). Fluorescence polarisation was measured using a Biotek Synergy 4 Hybrid microplate reader. Percentage inhibition of kinase activity was calculated and IC50 values derived using non-linear regression on GraphPad Prism. Competition of ALM301 with ATP was determined using AKT1 under increasing ATP concentrations up to 1000 µM.

AKT2 = target: T2, AKT2 (Homo sapiens, UniProt P31751); experiment: AKT2 biochemical kinase assay (FP iMAP); conditions: read-out: AKT IC50, AKT2
T2 construct: purchased Signal Chem
Method: as §3

AKT3 = target: T3, AKT3 (Homo sapiens, UniProt Q9Y243); experiment: AKT3 biochemical kinase assay (FP iMAP); conditions: read-out: AKT IC50, AKT3
T3 construct: purchased Signal Chem
Method: as §3

MCF-7 xenografts = experiment: Efficacy study in MCF-7 breast cancer xenograft model; type: in vivo; conditions: MCF-7 xenograft, tamoxifen alone 5 mg/kg q.d. p.o.
Method: For efficacy in MCF-7 xenografts, 150 SCID female mice aged 6–8 weeks and weighing approximately 18–22 g were implanted with 1 × 10^7 MCF-7 tumour cells (ATCC) subcutaneously in the right flank. […] Once mean tumour size reached approximately 150 mm^3, mice were randomised to either control or treatment groups (n = 10/group) using a randomised block approach. Groups sizes were devised based on past experience of the provider. […] Tumour size was measured twice weekly in two dimensions using a caliper, and the volume expressed in mm^3 using the formula: V = 0.5 (a x b^2), where a and b are the long and short diameters of the tumour, respectively.

MCF-7 cells = conditions: ALM301 in combination with Tamoxifen
Method: A synergy screen, using ALM301 and combination partners in a matrix design, was conducted to identify compounds which are synergistic in combination with ALM301. Synergy was calculated using the median concentration effect method using Calcusyn software as previously described.

[8] = PBS buffer, pH 7.4, aqueous buffer, kinetic from dmso stock

T1 sequence (P31749 whole entry): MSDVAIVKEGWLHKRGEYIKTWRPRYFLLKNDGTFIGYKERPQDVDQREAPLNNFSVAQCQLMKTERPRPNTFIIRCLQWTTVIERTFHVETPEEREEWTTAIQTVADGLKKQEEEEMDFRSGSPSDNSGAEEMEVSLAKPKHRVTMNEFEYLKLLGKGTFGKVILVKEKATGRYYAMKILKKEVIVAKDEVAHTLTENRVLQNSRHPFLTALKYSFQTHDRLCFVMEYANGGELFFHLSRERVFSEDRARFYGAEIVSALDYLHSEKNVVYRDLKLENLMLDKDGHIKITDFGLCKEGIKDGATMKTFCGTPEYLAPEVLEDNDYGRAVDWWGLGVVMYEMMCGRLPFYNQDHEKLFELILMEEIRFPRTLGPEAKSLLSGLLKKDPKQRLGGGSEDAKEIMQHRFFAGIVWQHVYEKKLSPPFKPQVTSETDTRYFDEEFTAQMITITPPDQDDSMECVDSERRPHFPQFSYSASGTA
T2 sequence (P31751 whole entry): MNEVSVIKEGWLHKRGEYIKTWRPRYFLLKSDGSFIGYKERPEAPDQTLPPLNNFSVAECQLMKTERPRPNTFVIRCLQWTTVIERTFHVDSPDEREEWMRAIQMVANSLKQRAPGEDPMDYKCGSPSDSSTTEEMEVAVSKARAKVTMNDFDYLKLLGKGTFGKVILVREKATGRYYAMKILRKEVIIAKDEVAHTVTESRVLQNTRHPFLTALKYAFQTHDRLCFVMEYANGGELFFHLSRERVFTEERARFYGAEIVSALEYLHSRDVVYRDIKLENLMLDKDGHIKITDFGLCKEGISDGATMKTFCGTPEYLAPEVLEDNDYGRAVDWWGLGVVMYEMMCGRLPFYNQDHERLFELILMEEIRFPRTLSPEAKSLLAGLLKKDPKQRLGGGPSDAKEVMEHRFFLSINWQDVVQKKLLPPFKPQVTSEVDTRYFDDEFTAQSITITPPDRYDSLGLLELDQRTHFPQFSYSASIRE
T3 sequence (Q9Y243 whole entry): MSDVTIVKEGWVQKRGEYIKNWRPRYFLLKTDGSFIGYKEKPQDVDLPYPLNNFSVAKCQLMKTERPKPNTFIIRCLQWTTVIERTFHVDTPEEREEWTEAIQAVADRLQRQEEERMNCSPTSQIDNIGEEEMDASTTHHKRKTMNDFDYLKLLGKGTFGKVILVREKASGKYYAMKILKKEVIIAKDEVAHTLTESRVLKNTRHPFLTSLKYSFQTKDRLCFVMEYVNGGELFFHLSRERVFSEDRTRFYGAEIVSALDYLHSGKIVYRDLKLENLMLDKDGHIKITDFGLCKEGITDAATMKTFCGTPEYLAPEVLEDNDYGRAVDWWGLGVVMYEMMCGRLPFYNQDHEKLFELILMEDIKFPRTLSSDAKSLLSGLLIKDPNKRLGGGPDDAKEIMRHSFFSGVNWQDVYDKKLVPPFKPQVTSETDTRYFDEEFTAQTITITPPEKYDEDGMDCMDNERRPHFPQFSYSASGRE
CYP 2C9, sequence (P11712 whole entry): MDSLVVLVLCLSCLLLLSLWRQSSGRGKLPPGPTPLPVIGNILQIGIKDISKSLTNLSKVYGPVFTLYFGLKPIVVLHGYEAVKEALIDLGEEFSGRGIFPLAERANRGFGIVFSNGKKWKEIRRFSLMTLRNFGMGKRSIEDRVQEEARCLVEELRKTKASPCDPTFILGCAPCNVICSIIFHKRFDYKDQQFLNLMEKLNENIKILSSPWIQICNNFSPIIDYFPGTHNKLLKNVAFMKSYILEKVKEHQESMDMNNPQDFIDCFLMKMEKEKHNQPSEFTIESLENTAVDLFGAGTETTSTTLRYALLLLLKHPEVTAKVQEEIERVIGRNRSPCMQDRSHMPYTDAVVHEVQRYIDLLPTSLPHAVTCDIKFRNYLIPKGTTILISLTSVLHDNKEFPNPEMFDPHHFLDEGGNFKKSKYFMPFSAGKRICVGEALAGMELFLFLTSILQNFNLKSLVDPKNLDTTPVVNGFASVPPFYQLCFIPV

Compound: NC1(c2ccc(-c3nc4ccn5c(=O)[nH]nc5c4cc3-c3ccccc3)cc2)CCC1 [MK-2206, reference compound]
EC50 at 72 h [1]: < 20 µM
microsomal CLint at 1 µM [2]: 20 µL/min/mg
clearance ([3]; Sprague-Dawley, rat, plasma, iv, 1 mg/kg i.v., read-out: Rat PK CL): 24 mL/min/kg
Vd ([3]; Sprague-Dawley, rat, plasma, iv, 1 mg/kg i.v., read-out: Rat PK Vd): 12 L/kg
Rat PK F ([3]; 1 mg/kg i.v. and 5 mg/kg p.o., AUC 0-∞): 12%
pAKT^S473 in tumours [4]: incomplete inhibition
IC50 (CYP 2C9): 19 µM
logD at 4 h (LogD7.4 assay): 2.4
solubility kinetic (Kinetic solubility assay; [8]): 190 µM
microsomal CLint at 1 µM [5]: 13 µL/min/mg
EC50 [6]: 2.55 µM
IC50 [7]: 0.12 µM

AKT1 ligand efficiency (LE) (AKT1): 0.28
IC50 (AKT1): 2.5 µM
IC50 (AKT2): 3.3 µM
IC50 (AKT3): 6.1 µM
solubility kinetic (Kinetic solubility assay; [8]): 206 µM
IC50 [7]: 3 µM
Compound: NC1(c2ccc(-c3nc4c(cc3-c3ccccc3)NC(=O)CO4)cc2)CCC1 [compound 1]

AKT1 ligand efficiency (LE) (AKT1): 0.34
IC50 (AKT1): 0.1 µM
IC50 (AKT2): 0.4 µM
IC50 (AKT3): 5.6 µM
solubility kinetic (Kinetic solubility assay; [8]): > 190 µM
solubility kinetic (Kinetic solubility assay): 191 µM
IC50 [7]: 0.1 µM
Compound: CN1C(=O)COc2nc(-c3ccc(C4(N)CCC4)cc3)c(-c3ccccc3)cc21 [compound 2]
potency improvement in pGSK3β decrease compared with des-N-methyl analogue 1 ([7]; PC3 prostate cancer cells): ca. 30 fold

Compound: CC/C(=C(\c1ccccc1)c1ccc(OCCN(C)C)cc1)c1ccccc1 [tamoxifen]
tumour regression (MCF-7 xenografts): 24%
combination effect at ED50 (MCF-7 cells): Synergy
combination effect at ED75 (MCF-7 cells): Synergy
combination effect at ED90 (MCF-7 cells): Strong Synergy
